Experimental data published in US12065438B2, “Substituted tricyclic compounds as indoleamine 2,3-dioxygenase inhibitors” (Merck Sharp & Dohme LLC, priority 2019, dated 2024).

Molecular target: T1, IDO1 (Homo sapiens, UniProt P14902)
Assay: IDO1 Human Whole Blood Assay
Format: cell-based
Conditions: LPS and IFNγ 100 ng/mL, overnight (18 h), kynurenine by LC/MS/MS
Procedure: IDO1 Human Whole Blood Assay
Compounds to be tested were serially diluted in ten 3-fold steps in DMSO starting from 10 mM. 3 μL of compound dilutions or DMSO alone were then dispensed from the dilution plate into a polypropylene 96-well assay plate containing 97 μL of RPMI medium using an Echo 555 acoustic liquid handler (Labcyte). LPS and IFNγ was prepared in RPMI medium to a 10× of final conc. (1000 ng/mL), final concentration is 100 ng/mL.
240 μL of blood was transferred to each of the wells of a v-bottom 96 well plate. 30 μL of compound was transferred from intermediate dilution plate, and incubated for 15 min. 30 μL from stimulants was then transferred to blood and mixed thoroughly. Plate was covered with breathable membrane and incubated at 37° C. for overnight (18 h).
On day 2, isotope labeled standard solutions of kynurenine and tryptophan was made in water at 10× concentration and 30 μL was added to the blood at 3 μM final concentration. The assay plates were centrifuged at 300×G for 10 min with no brake to separate plasma from red blood cells. 60 μL of plasma samples was removed without disturbing red blood cells. Plasma was diluted with RPMI in 1:1 ratio and proteins were precipitated out with two volumes of Acetonitrile. The plates were centrifuged at 4000×G for 60 min. 20 μL of supernatant was carefully transferred to a 384 well plate containing 40 μL of 0.1% formic acid in water and analyzed by LC/MS/MS.
LC/MS/MS analyses were performed using Thermo Fisher's LX4-TSQ Quantum Ultra system. This system consists of four Agilent binary high-performance liquid chromatography (HPLC) pumps and a TSQ Quantum Ultra triple quadrupole MS/MS instrument. For each sample, 5 μL were injected onto an Atlantis T3 column (2.1 mm×150 mm, 3 μm particle size) from Waters. The mobile phase gradient pumped at 0.8 mL/min was used to elute the analytes from the column at 25° C. The elution started at 0% B increasing linearly to 25% B at 6.5 min, holding at 25% for 1 min, re-equilibrating to 10 min. Mobile phase A consisted of 0.1% formic acid in water. Mobile phase B consisted of 0.1% of formic acid in acetonitrile. Data were acquired in positive mode using a HESI interface. The operational parameters for the TSQ Quantum Ultra instrument were a spray voltage of 4000 V, capillary temperature of 380° C., vaporizer temperature 400° C., shealth gas 60 arbitrary units, Aux gas 20 arbitrary units, tube lens 85 and collision gas 1.2 mTorr. SRM chromatograms of kynurenine (Q1: 209.2>Q3:94.0) and internal standard (Q1: 215.3>Q3:98.2) were collected for 90 sec. The peak area was integrated by Xcalibur Quan software. The ratios between the kynurenine generated in the reaction and 2D6-Kynurenine spiked-in internal standard were used to generate percentage inhibition and IC50 values. Compounds were titrated and IC50's were calculated by 4 parameter sigmoidal curve fitting formula.

T1 sequence (P14902 whole entry): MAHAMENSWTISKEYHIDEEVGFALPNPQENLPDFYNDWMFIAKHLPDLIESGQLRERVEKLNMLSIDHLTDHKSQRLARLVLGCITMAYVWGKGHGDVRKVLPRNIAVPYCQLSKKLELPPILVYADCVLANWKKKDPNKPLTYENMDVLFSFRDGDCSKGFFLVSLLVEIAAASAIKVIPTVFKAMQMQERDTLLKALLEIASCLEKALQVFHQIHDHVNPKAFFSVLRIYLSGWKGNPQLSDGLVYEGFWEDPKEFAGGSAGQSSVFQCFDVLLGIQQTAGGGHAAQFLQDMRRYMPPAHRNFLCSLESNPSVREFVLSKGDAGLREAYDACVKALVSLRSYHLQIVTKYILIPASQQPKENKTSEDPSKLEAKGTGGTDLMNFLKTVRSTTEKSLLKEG

Point of comparison: CC(C)(NC(=O)c1ccc(F)cc1)c1ccc2c(n1)C1CC1CN2C(=O)OC1CC1 (single isomer, unassigned) [Example 32, cyclopropyl 2-(2-(4-fluorobenzamido)propan-2-yl)-6,6a,7,7a-tetrahydro-5H-cyclopropa[c][1,5]naphthyridine-5-carboxylate], IC50 778 nM. Against it:
- O=C(NC1(c2ccc3c(n2)[C@@H]2C[C@@H]2CN3C(=O)OC2CC2)CC1)c1ccc(F)cc1 (single isomer, unassigned) [Example 21] — within 1.5-fold, 946 nM

Molecular target: T1, IDO1
Assay: IDO1 Cellular Assay in HeLa Cells Stimulated with IFNγ
Format: cell-based
Set-up: endogenous in cells; host or cells: HeLa cells stimulated with IFNγ
Conditions: HeLa cells stimulated with IFNγ 100 ng/mL, 300 uM L-tryptophan, about 48 hours, fluorescence readout; read-out: IDO1 HELA Cell Assay, IC50
Procedure: Biological Assays IDO1 Cellular Assay in HeLa Cells Stimulated with IFNγ HeLa cells were cultured in complete HeLa culture medium (90% EMEM, 10% heat-inactivated fetal bovine serum) and expanded to about 1×10^9 cells. The cells were then collected and frozen down at 1×10^7 cells/vial in 1 mL frozen medium (90% complete HeLa culture medium, 10% DMSO). Compounds to be tested were serially diluted in ten 3-fold steps in DMSO starting from 10 mM DMSO stocks in Echo low volume plate(s). Compound dilutions or DMSO alone were then dispensed from the dilution plate(s) into Greiner black 384-well assay plate(s) (catalog #781086, 50 nL/well) using an Echo 550 acoustic liquid handler (Labcyte). Frozen HeLa cells were thawed and transferred into HeLa assay medium (99% complete HeLa culture medium, 1% Pen/Strep) with 20 mL medium/vial of cells. The cells were spun down at 250 g in a table top centrifuge for 5 min and suspended in same volume of HeLa assay medium. The cells were then counted and adjusted to a density of 2×10^5 cells/mL in HeLa assay medium. Sterile L-tryptophan were added to the cells with final concentration of 300 uM L-tryptophan. A small aliquot (2 mL/plate) of HeLa cells were set aside and were not treated with IFNγ, to serve as the Max-E control. The rest of HeLa cells were added with sterile IFNγ (Cat #285-IF, R & D systems) with a final concentration of 100 ng/mL. HeLa cells with and without IFNγ were dispensed to the respective wells of 384-well assay plates containing the compounds. The plates were incubated for about 48 hours at a 37° C., 5% CO2 incubator. Afterwards, 12 μL of 0.5 M methyl isonipecotate in dimethyl sulfoxide were added into each well and the plates were sealed and incubated at 37° C. without CO2 overnight. The plates were centrifuged for 1 min at 200×g. The resulting fluorescence was measured in a Spectramax plate reader (Molecular Devices) with a 400 nm excitation filter and a 510 nm emission filter. The fluorescence intensity of each well was corrected for the background observed in wells with non-IFNγ-treated cells and was expressed as a fraction of the intensity observed in wells of IFNγ-treated cells and DMSO only. Potencies were calculated by […] least squares fit to the four parameter logistic IC50 equation.

Point of comparison: CC(C)(NC(=O)c1ccc(F)cc1)c1ccc2c(n1)C1CC1CN2C(=O)OC1CC1 (single isomer, unassigned) [Example 32, cyclopropyl 2-(2-(4-fluorobenzamido)propan-2-yl)-6,6a,7,7a-tetrahydro-5H-cyclopropa[c][1,5]naphthyridine-5-carboxylate], IC50 7.56 nM. Against it:
- O=C(NC1(c2ccc3c(n2)[C@@H]2C[C@@H]2CN3C(=O)OC2CC2)CC1)c1ccc(F)cc1 (single isomer, unassigned) [Example 21] — within 1.5-fold, 6.03 nM
- CC(C)(C)OC(=O)N1C[C@H]2C[C@H]2c2nc(C3(NC(=O)c4ccc(F)cc4)CC3)ccc21 [Example 53, tert-butyl (6aS,7aR)-2-(1-(4-fluorobenzamido)cyclopropyl)-6,6a,7,7a-tetrahydro-5H-cyclo-propa[c][1,5]naphthyridine-5-carboxylate] — 1.6-fold lower, 4.62 nM
- C[C@@H](NC(=O)c1ccc(F)cc1)c1ccc2c(n1)[C@H]1C[C@H]1CN2C(=O)OC1CC1 [Example 28, cyclopropyl (6aR,7aS)-2-((R)-1-(4-fluorobenzamido)-ethyl)-6,6a,7,7a-tetrahydro-5H-cyclopropa[c][1,5]-naphthyridine-5-carboxylate] — 3.9-fold higher, 29.3 nM
- Cc1nccc(N2CC3CC3c3cc(C4(NC(=O)c5ccc(F)cc5)CC4)ccc32)n1 [Example 1, 4-fluoro-N-(1-((1aR,7bS)-3-(2-methylpyrimidin-4-yl)-1a,2,3,7b-tetrahydro-1H-cyclopropa[c]quinolin-6-yl)cyclopropyl)benzamide] — 4.5-fold lower, 1.67 nM
- Cc1nccc(N2C[C@H]3C[C@H]3c3nc([C@@]4(NC(=O)c5ccc(F)cc5)C[C@@H]4C)ccc32)n1 [Example 45, 4-fluoro-N-((1R,2S)-2-methyl-1-((6aS,7aR)-5-(2-methyl-pyrimidin-4-yl)-6,6a,7,7a-tetra-hydro-5H-cyclopropa[c][1,5]-naphthyridin-2-yl)cyclopropyl)-benzamide] — 2.2-fold lower, 3.39 nM
- CC(C)(C)OC(=O)N1CC2CC2c2nc(C(C)(C)NC(=O)c3ccc(F)cc3)ccc21 (stereo not drawn) [Example 55, tert-butyl 2-(2-(4-fluorobenz-amido)propan-2-yl)-6,6a,7,7a-tetrahydro-5H-cyclopropa[c]-[1,5]naphthyridine-5-carboxylate] — 2.2-fold higher, 16.6 nM
- O=C(NC1(c2ccc3c(n2)[C@H]2C[C@H]2CN3C(=O)OC2CCOCC2)CC1)c1ccc(F)cc1 [Example 22, tetrahydro-2H-pyran-4-yl (6aR,7aS)-2-(1-(4-fluorobenzamido)cyclo-propyl)-6,6a,7,7a-tetra-hydro-5H-cyclopropa[c]-[1,5]naphthyridine-5-carboxylate] — 8.1-fold higher, 61.6 nM
- CCC(NC(=O)c1ccc(F)cc1)c1ccc2c(n1)C1CC1CN2c1ccnc(C)n1 (racemic) [Example 38, 4-fluoro-N-(1-(5-(2-methyl-pyrimidin-4-yl)-6,6a,7,7a-tetrahydro-5H-cyclopropa[c]-[1,5]naphthyridin-2-yl)propyl)-benzamide] — within 1.5-fold, 6.77 nM
- Cc1nccc(N2C[C@H]3C[C@H]3c3nc([C@]4(NC(=O)c5ccc(F)cc5)C[C@@H]4C)ccc32)n1 [Example 46, 4-fluoro-N-((1S,2S)-2-methyl-1-((6aS,7aR)-5-(2-methyl-pyrimidin-4-yl)-6,6a,7,7a-tetra-hydro-5H-cyclopropa[c][1,5]-naphthyridin-2-yl)cyclopropyl)-benzamide] — 3.2-fold higher, 24.4 nM
- O=C(NC1(c2ccc3c(n2)C2CC2CN3)CC1)c1ccc(F)cc1 (stereo not drawn) [Example 11, 4-fluoro-N-(1-(6,6a,7,7a-tetrahydro-5H-cyclopropa[c][1,5]naphthyridin-2-yl)cyclopropyl)benzamide] — 300-fold higher, 2300 nM
- O=C(C1CC1)N1CC2CC2c2cc(C3(C(=O)Nc4ccc(F)cc4)CCC3)ccc21 (single isomer, unassigned) [Example 3, 1-(3-(cyclopropanecarbonyl)-1a,2,3,7b-tetrahydro-1H-cyclopropa[c]quinolin-6-yl)-N-(4-fluorophenyl)cyclobutanecarboxamide] — 5.8-fold higher, 44 nM
- C[C@H](NC(=O)c1ccc(F)cc1)c1ccc2c(n1)[C@@H]1C[C@@H]1CN2C(=O)OC1CC1 [Example 26, cyclopropyl (6aS,7aR)-2-((S)-1-(4-fluorobenzamido)-ethyl)-6,6a,7,7a-tetrahydro-5H-cyclopropa[c][1,5]-naphthyridine-5-carboxylate] — 4.6-fold higher, 35 nM
- CC(C)(NC(=O)c1ccc(F)cc1)c1ccc2c(n1)C1CC1CN2 (stereo not drawn) [Example 54, 4-fluoro-N-(2-(6,6a,7,7a-tetra-hydro-5H-cyclopropa[c][1,5]-naphthyridin-2-yl)propan-2-yl)-benzamide] — 650-fold higher, 4900 nM
- Cc1nccc(N2c3ccc(C4(NC(=O)c5ccc(F)cc5)CC4)nc3C3CC2C3C)n1 (stereo not drawn) [Example 48, 4-fluoro-N-(1-(3-methyl-1-(2-methylpyrimidin-4-yl)-1,2,3,4-tetrahydro-2,4-methano-1,5-naphthyridin-6-yl)cyclopropyl)benzamide] — 10-fold higher, 76.3 nM
- O=C(NC1(c2ccc3c(n2)C2CC(C2)N3C(=O)OCc2ccccc2)CC1)c1ccc(F)cc1 [Example 49, benzyl 6-(1-(4-fluorobenzamido)cyclopropyl)-3,4-dihydro-2,4-methano-1,5-naphthyridine-1(2H)-carboxylate] — 2.7-fold higher, 20.4 nM
- CC(NC(=O)c1ccc(F)cc1)c1ccc2c(n1)C1CC1CN2C(=O)OC(C)(C)C (stereo not drawn) [Example 24, tert-butyl 2-(1-(4-fluorobenzamido)ethyl)-6,6a,7,7a-tetrahydro-5H-cyclopropa[c][1,5]naphthyridine-5-carboxylate] — 2.8-fold higher, 20.9 nM
- Cc1nccc(N2C[C@@H]3C[C@@H]3c3nc(C4(NC(=O)c5ccc(F)cc5)CC4)ccc32)n1 (stereo in doubt) [Example 12, 4-fluoro-N-(1-(5-(2-methylpyrimidin-4-yl)-6,6a,7,7a-tetrahydro-5H-cyclopropa[c][1,5]naphthyridin-2-yl)cyclopropyl)benzamide] — 4-fold lower, 1.91 nM
- Cc1nccc(N2C[C@@H]3C[C@@H]3c3nc([C@]4(NC(=O)c5ccc(F)cc5)C[C@@H]4C)ccc32)n1 [Example 42, 4-fluoro-N-((1S,2S)-2-methyl-1-((6aR,7aS)-5-(2-methyl-pyrimidin-4-yl)-6,6a,7,7a-tetra-hydro-5H-cyclopropa[c][1,5]-naphthyridin-2-yl)cyclopropyl)-benzamide] — 2.4-fold lower, 3.17 nM
